Values of other authors as cited in patent US20030013726A1 (priority 2000, published 2003).

System: patients with disorders of initiating sleep

CCN(C(C)=O)c1cccc(-c2ccnc3c(C#N)cnn23)c1 [zaleplon]
sleep stages 3 and 4 (delta sleep and deep sleep) (clinical studies): not impaired
effectiveness for patients with disorders of initiating sleep (clinical study on more than 3 700 patients in the USA, Canada and Europe, including elderly people 65-85 years): very effective
sleep latency estimated both by polysomnography and subjectively (compared with placebo, clinical studies): significantly reduced
